Results: patent US20220002671A1, “T Cells with Improved Mitochondrial Function” (Abraham J and Phyllis Katz Cord Blood Foundation, priority 2018, published 2022)

Key:
[1] = system: mitochondrial transfer from BM-MSC to UCB iTregs; assay: Mitochondrial transfer from mt-GFP lentivirus transduced MSC into iTregs, flow cytometry; assay type: cell-based, human
TNT formation = settings: Sáenz-de-Santa-María et al., Oncotarget, 2017; cited from earlier work
[2] = system: mitochondrial transfer from BM-MSC to UCB iTregs; assay: Mitochondrial transfer from BM-MSC into UCB iTregs, MitoTracker Red FM by confocal microscopy; assay type: cell-based, human
[3] = system: mitochondrial transfer from hBM-MSC to iTreg; assay: Mitochondrial transfer from BM-MSC into iTregs, MitoTracker green by flow cytometry; assay type: cell-based, human; settings: Cytochalasin B 350 nM treated BM-MSC, 24 h, n=6; Mock 2208±122.1
[4] = system: BACH2, SENP3, Foxp3 in iTreg; assay: iTreg Foxp3, BACH2 and SENP3 protein expression; assay type: cell-based, human; settings: after cytochalasin B treatment

Nc1ncnc2c1ncn2[C@@H]1O[C@H](COP(=O)(O)CP(=O)(O)O)[C@@H](O)[C@H]1O [Adenosine 5′-(α,(β-methylene)diphosphate, Adenosine 5′-(α,β-methylene)diphosphate]
mitochondrial transfer from BM-MSC to UCB iTregs (mt-GFP+ iTregs) [1]: significantly blocks mitochondrial transfer

C=C1[C@@H](C)[C@H]2[C@H](Cc3ccccc3)NC(=O)[C@]23[C@H](OC(C)=O)/C=C/[C@@](C)(O)C(=O)[C@@H](C)C/C=C/[C@H]3[C@@H]1O [Cytocalasin D, Cytochalasin D]
TNT formation (TNT formation): significant reduction

CC(=O)N[C@@H](CS)C(=O)O [N-acetylcysteine]
mitochondria uptake by Treg (confocal) ([2]; 200 uM added to BM-MSC+iTreg culture, 24-36 h): minimally reduced

C=C(C)[C@H]1Cc2c(ccc3c2O[C@@H]2COc4cc(OC)c(OC)cc4[C@@H]2C3=O)O1 [rotenone]
transfer of mitochondria into iTregs from rotenone treated MSC ([1]; rotenone treated mt-GFP MSC platform, 72 hrs): do not transfer

Cytochalasin B
mitochondrial transfer from hBM-MSC to iTreg (MitoTracker MFI) [3]: 923.8±89 MFI | mitochondrial transfer from MSC to UCB iTregs (MitoTracker+ iTregs, confocal) ([2]; 350 nM, 24 h): significantly blocks mitochondrial transfer | iTreg BACH2 protein expression [4]: dramatically decreased | iTreg SENP3 protein expression [4]: no significant effect
